Test [1] concerns the target T1, SMYD3 (Homo sapiens (Human), UniProt Q9H7B4). The test is described as follows: SMYD3 biochemical assay (SPA, 3H-SAM methylation of MEKK2 protein substrate). Conditions: read-out: SMYD3 Biochem IC50*. In a few lines:
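Methylation of N-terminally GST-tagged MEKK2 by untagged full-length human SMYD3, using 3H-SAM, in pH 8.0 Tris buffer with TCEP, BSG and Tween 20; enzyme and compound sat 30 min at room temperature before substrate addition. Stopped with 100 uM (final) cold SAM; incorporation read by scintillation proximity as dpm/cpm.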

Test [2] has as its target T1, SMYD3. Kind of test: SMYD3 cell assay (Trimethyl-MEKK2 In-Cell Western in 293T/17 cells). Conditions: read-out: SMYD3 Cell IC50*. Format: cell-based. In a few lines:
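In-Cell Western readout: methanol-fixed cells stained for trimethyl-MEKK2 and flag tag, ratio per well normalized to DMSO and background controls.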

In general, IC50 refers to the concentration at which inhibition is half-maximal.

T1 sequence (Q9H7B4 whole entry): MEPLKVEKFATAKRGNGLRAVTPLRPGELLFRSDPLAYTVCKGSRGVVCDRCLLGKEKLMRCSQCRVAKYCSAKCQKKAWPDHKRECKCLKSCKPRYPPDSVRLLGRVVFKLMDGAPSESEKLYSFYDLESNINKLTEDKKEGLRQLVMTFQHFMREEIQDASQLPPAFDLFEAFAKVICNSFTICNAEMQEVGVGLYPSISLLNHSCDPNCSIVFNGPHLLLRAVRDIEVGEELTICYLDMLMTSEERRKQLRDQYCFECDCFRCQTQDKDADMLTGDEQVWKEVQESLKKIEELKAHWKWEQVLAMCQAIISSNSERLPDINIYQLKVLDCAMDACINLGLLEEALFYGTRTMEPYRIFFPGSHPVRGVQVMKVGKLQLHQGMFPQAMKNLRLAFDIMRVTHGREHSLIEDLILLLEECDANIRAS

With `C[C@H]1C[C@@H](NC(=O)c2cc(C3CC3)on2)CCN1S(=O)(=O)CC[C@@H]1CCNC1` [compound 841, 5-cyclopropyl-N-((2S,4S)-2-methyl-1-((2-((S)-pyrrolidin-3-yl)ethyl)sulfonyl)piperidin-4-yl)isoxazole-3-carboxamide], the IC50 in test [1] was 5.05 nM; in test [2], 124 nM.

Turning to `C[C@H](C1CCNCC1)S(=O)(=O)N1[C@@H]2CC[C@H]1C[C@@H](NC(=O)c1cc(C3CC3)on1)C2` [compound 842, 5-cyclopropyl-N-((1R,3R,5S)-8-(((R)-1-(piperidin-4-yl)ethyl)sulfonyl)-8-azabicyclo[3.2.1]octan-3-yl)isoxazole-3-carboxamide], the IC50 turned out to be 5.1 nM in test [1] and 29 nM in test [2].

Turning to `CC(C)CNC1CCN(S(=O)(=O)N2CC[C@H](NC(=O)c3cc(C4CC4)on3)C[C@@H]2C)CC1` [compound 843, 5-cyclopropyl-N-((2S,4S)-1-((4-(isobutylamino)piperidin-1-yl)sulfonyl)-2-methylpiperidin-4-yl)isoxazole-3-carboxamide], the results for the IC50 in test [1] and in test [2] were 5.11 nM and 77.7 nM, respectively.

Regarding `CN(CCc1ccccc1)C1CCN(S(=O)(=O)N2[C@@H]3CC[C@H]2C[C@@H](NC(=O)c2cc(C4CC4)on2)C3)CC1` [compound 844, 5-cyclopropyl-N-((1R,3r,5S)-8-((4-(methyl(phenethyl)amino)piperidin-1-yl)sulfonyl)-8-azabicyclo[3.2.1]octan-3-yl)isoxazole-3-carboxamide], the results for the IC50 in test [1] and in test [2] were 5.28 nM and 305 nM, respectively.

Take `O=C(N[C@H]1C[C@H]2CC[C@@H](C1)N2S(=O)(=O)N1CCC(NCCCO)CC1)c1cc(C2CC2)on1` [compound 845, 5-cyclopropyl-N-((1R,3r,5S)-8-((4-((3-hydroxypropyl)amino)piperidin-1-yl)sulfonyl)-8-azabicyclo[3.2.1]octan-3-yl)isoxazole-3-carboxamide]: the values for the IC50 in test [1] and in test [2] were 5.3 nM and 86.3 nM, respectively.

For `CC(C)CCN(C)C1CCN(S(=O)(=O)N2[C@@H]3CC[C@H]2C[C@@H](NC(=O)c2cc(C4CC4)on2)C3)CC1` [compound 846, 5-cyclopropyl-N-((1R,3r,5S)-8-((4-(isopentyl(methyl)amino)piperidin-1-yl)sulfonyl)-8-azabicyclo[3.2.1]octan-3-yl)isoxazole-3-carboxamide], the IC50 in test [1] worked out at 5.36 nM; in test [2], 80.2 nM.

Consider `C[C@H]1C[C@@H](NC(=O)c2cc(C3CC3)on2)CCN1S(=O)(=O)N1CCC(N2CCCC2)CC1` [compound 847, 5-cyclopropyl-N-((2S,4S)-2-methyl-1-((4-(pyrrolidin-1-yl)piperidin-1-yl)sulfonyl)piperidin-4-yl)isoxazole-3-carboxamide], for which the values for the IC50 in test [1] and in test [2] were 5.53 nM and 75.8 nM, respectively.

As for `O=C(N[C@H]1C[C@H]2CC[C@@H](C1)N2S(=O)(=O)N1CCC(NCc2ccc(F)cc2)CC1)c1cc(C2CC2)on1` [compound 848, 5-cyclopropyl-N-((1R,3r,5S)-8-((4-((4-fluorobenzyl)amino)piperidin-1-yl)sulfonyl)-8-azabicyclo[3.2.1]octan-3-yl)isoxazole-3-carboxamide], the results for the IC50 in test [1] and in test [2] were 5.73 nM and 153 nM, respectively.

Take `O=C(N[C@H]1C[C@H]2CC[C@@H](C1)N2S(=O)(=O)N1CCC2(CCN2)CC1)c1cc(C2CC2)on1` [compound 849, N-((1R,3r,5S)-8-((1,7-diazaspiro[3.5]nonan-7-yl)sulfonyl)-8-azabicyclo[3.2.1]octan-3-yl)-5-cyclopropylisoxazole-3-carboxamide]: the IC50 in test [1] amounted to 5.95 nM; in test [2] it was 62 nM.

As for `O=C(N[C@H]1C[C@H]2CC[C@@H](C1)N2S(=O)(=O)N1CC2CCC(C1)N2CCCO)c1cc(C2CC2)on1` [compound 850, 5-cyclopropyl-N-((1R,3r,5S)-8-((8-(3-hydroxypropyl)-3,8-diazabicyclo[3.2.1]octan-3-yl)sulfonyl)-8-azabicyclo[3.2.1]octan-3-yl)isoxazole-3-carboxamide], the IC50 in test [1] turned out to be 6.21 nM; in test [2], 58.8 nM.

Take `COCCN(C)C1CCN(S(=O)(=O)N2CC[C@H](NC(=O)c3cc(C4CC4)on3)C[C@@H]2C)CC1` [compound 851, 5-cyclopropyl-N-((2S,4S)-1-((4-((2-methoxyethyl)(methyl)amino)piperidin-1-yl)sulfonyl)-2-methylpiperidin-4-yl)isoxazole-3-carboxamide]: the half-maximal inhibitory concentration (IC50) in test [1] amounted to 6.44 nM; in test [2], 125 nM.

As for `CCN(C)C1CCN(S(=O)(=O)N2[C@@H]3CC[C@H]2C[C@@H](NC(=O)c2cc(C4CC4)on2)C3)CC1` [compound 852, 5-cyclopropyl-N-((1R,3r,5S)-8-((4-(ethyl(methyl)amino)piperidin-1-yl)sulfonyl)-8-azabicyclo[3.2.1]octan-3-yl)isoxazole-3-carboxamide], the IC50 in test [1] was 6.5 nM; in test [2], 114 nM.

Take `CC(C)CNC1CCN(S(=O)(=O)N2[C@@H]3CC[C@H]2C[C@@H](NC(=O)c2cc(C4CC4)on2)C3)CC1` [compound 853, 5-cyclopropyl-N-((1R,3r,5S)-8-((4-(isobutylamino)piperidin-1-yl)sulfonyl)-8-azabicyclo[3.2.1]octan-3-yl)isoxazole-3-carboxamide]: the IC50 in test [1] was 6.55 nM; in test [2], 71 nM.

Take `O=C(N[C@H]1C[C@H]2CC[C@@H](C1)N2S(=O)(=O)N1CC2CCC1CN2)c1cc(C2CC2)on1` [compound 855, N-((1R,3r,5S)-8-((2,5-diazabicyclo[2.2.2]octan-2-yl)sulfonyl)-8-azabicyclo[3.2.1]octan-3-yl)-5-cyclopropylisoxazole-3-carboxamide]: the IC50 stood at 7.06 nM in test [1] and 68.7 nM in test [2].

For `O=C(N[C@H]1C[C@H]2CC[C@@H](C1)N2S(=O)(=O)N1CCNCC1)c1cc(C2CC2)on1` [compound 856, 5-cyclopropyl-N-((1R,3r,5S)-8-(piperazin-1-ylsulfonyl)-8-azabicyclo[3.2.1]octan-3-yl)isoxazole-3-carboxamide], the 50% inhibitory concentration (IC50) in test [1] stood at 7.09 nM; in test [2], 46.7 nM.

For `CC1CC(CS(=O)(=O)N2[C@@H]3CC[C@H]2C[C@@H](NC(=O)c2cc(C4CC4)on2)C3)CC(C)N1` (stereo partly drawn) [compound 857, 5-cyclopropyl-N-((1R,3r,5S)-8-(((2,6-dimethylpiperidin-4-yl)methyl)sulfonyl)-8-azabicyclo[3.2.1]octan-3-yl)isoxazole-3-carboxamide], the IC50 worked out at 7.09 nM in test [1] and 130 nM in test [2].

For the compound `C[C@H]1C[C@@H](NC(=O)c2cc(C3CC3)on2)CCN1S(=O)(=O)CC[C@H]1CCNC1` [compound 858, 5-cyclopropyl-N-((2S,4S)-2-methyl-1-((2-((R)-pyrrolidin-3-yl)ethyl)sulfonyl)piperidin-4-yl)isoxazole-3-carboxamide], the IC50 is 7.2 nM in test [1] and 172 nM in test [2].

As for `O=C(N[C@H]1C[C@H]2CC[C@@H](C1)N2S(=O)(=O)[C@H]1CC[C@H](NCCN2CCOCC2)CC1)c1cc(C2CC2)on1` [compound 859, 5-cyclopropyl-N-((1R,3R,5S)-8-(((1r,4R)-4-((2-morpholinoethyl)amino)cyclohexyl)sulfonyl)-8-azabicyclo[3.2.1]octan-3-yl)isoxazole-3-carboxamide], the figures for the IC50 in test [1] and in test [2] were 7.43 nM and 209 nM, respectively.

On to `CC(C)CN(C)C1CCN(S(=O)(=O)N2[C@@H]3CC[C@H]2C[C@@H](NC(=O)c2cc(C4CC4)on2)C3)CC1` [compound 860, 5-cyclopropyl-N-((1R,3r,5S)-8-((4-(isobutyl(methyl)amino)piperidin-1-yl)sulfonyl)-8-azabicyclo[3.2.1]octan-3-yl)isoxazole-3-carboxamide], for which the results for the IC50 in test [1] and in test [2] were 7.52 nM and 139 nM, respectively.

On to `COCCNC1CCN(S(=O)(=O)N2CC[C@H](NC(=O)c3cc(C4CC4)on3)C[C@@H]2C)CC1` [compound 861, 5-cyclopropyl-N-((2S,4S)-1-((4-((2-methoxyethyl)amino)piperidin-1-yl)sulfonyl)-2-methylpiperidin-4-yl)isoxazole-3-carboxamide], for which the IC50 stood at 7.65 nM in test [1] and 102 nM in test [2].

Turning to `CCCN(C)C1CCN(S(=O)(=O)N2[C@@H]3CC[C@H]2C[C@@H](NC(=O)c2cc(C4CC4)on2)C3)CC1` [compound 862, 5-cyclopropyl-N-((1R,3r,5S)-8-((4-(methyl(propyl)amino)piperidin-1-yl)sulfonyl)-8-azabicyclo[3.2.1]octan-3-yl)isoxazole-3-carboxamide], the IC50 is 7.69 nM in test [1] and 76.5 nM in test [2].

For the compound `CCCNC1CCN(S(=O)(=O)N2[C@@H]3CC[C@H]2C[C@@H](NC(=O)c2cc(C4CC4)on2)C3)CC1` [compound 863, 5-cyclopropyl-N-((1R,3r,5S)-8-((4-(propylamino)piperidin-1-yl)sulfonyl)-8-azabicyclo[3.2.1]octan-3-yl)isoxazole-3-carboxamide], the IC50 in test [1] stood at 7.77 nM; in test [2], 80 nM.

With `CN1CC2CC1CN2S(=O)(=O)N1[C@@H]2CC[C@H]1C[C@@H](NC(=O)c1cc(C3CC3)on1)C2` [compound 864, 5-cyclopropyl-N-((1R,3r,5S)-8-((5-methyl-2,5-diazabicyclo[2.2.1]heptan-2-yl)sulfonyl)-8-azabicyclo[3.2.1]octan-3-yl)isoxazole-3-carboxamide], the figures for the IC50 in test [1] and in test [2] were 8.22 nM and 86.2 nM, respectively.

As to `CCNC1CCN(S(=O)(=O)N2[C@@H]3CC[C@H]2C[C@@H](NC(=O)c2cc(C4CC4)on2)C3)CC1` [compound 865, 5-cyclopropyl-N-((1R,3r,5S)-8-((4-(ethylamino)piperidin-1-yl)sulfonyl)-8-azabicyclo[3.2.1]octan-3-yl)isoxazole-3-carboxamide], the values for the IC50 in test [1] and in test [2] were 8.55 nM and 90.2 nM, respectively.

Source of the values: US10577363B2, “Substituted piperidine compounds” (EPIZYME, INC., priority 2014, dated 2020).
